Results as given in patent US20120149598A1, “FEEDER CELLS FOR TARGET CELL INDUCTION” (priority 2009, published 2012).

Legend:
[1] = system: hTERT+TK-transduced human corneal stromal cells; assay: Susceptibility to ganciclovir treatment, cell count with trypan-blue staining; type: cell-based; details: n=3
Protocol: (§1) The susceptibilities of the transduced human corneal stromal cells to ganciclovir treatment were investigated by the following process. The hTERT-transduced human corneal stromal cells of Comparative Example and the hTERT+TK-transduced human corneal stromal cells of Example 1 were separately seeded at 2×10^4 cells/cm^2 in a 24-well plate, and cultured under conditions of 37° C. and 5% CO2 (medium: DMEM, 10% FBS, 100 U/ml penicillin and 100 μg/ml streptomycin). On the 1st day after seeding, ganciclovir treatment was started (treatment concentration: 0, 10^−7, […], […], and 10^−4 M; time course: day 0, 2, 4, 6, 8, 10, and 12). The susceptibility of each type of the transduced human corneal stromal cells to ganciclovir treatment was determined using 3 wells for each concentration at each time point (n=3). At each time point, the number of the cells was counted with trypan-blue staining. For counting with trypan-blue staining, an erythrocytometer (hematometer; product name: Burker-Turk deep 1/10 mm; product number: Tokyo No. 0880 (ERMA, Inc.)) was used. Immediately after staining, each sample was placed in a counting chamber of the erythrocytometer. Immediately after that, the number of the cells was counted. The average number of the cells on the zero-day of ganciclovir treatment at each treatment concentration was used as a baseline (100%) for the results of the cell number at each time point.

[2] = system: hTERT-transduced human corneal stromal cells (not transduced with the HSV-TK gene); assay: as above; type: cell-based; details: any treatment concentration (up to 10^-4 M), 12th day after ganciclovir treatment, n=3
Protocol: as §1

Nc1nc(O)c2ncn(COC(CO)CO)c2n1 [ganciclovir]
number of the cells after ganciclovir treatment ([1]; 10^-4 M treatment group, 6th day after ganciclovir treatment): all the cells died
number of the cells after ganciclovir treatment ([1]; 10^-7, 10^-6 and 10^-5 M groups, from the 8th day after ganciclovir treatment): concentration-dependent decrease in the number of the cells
number of the cells after ganciclovir treatment [2]: did not decrease
